Measured values: publication PMC4919369, “A phase I study of the investigational NEDD8-activating enzyme inhibitor pevonedistat (TAK-924/MLN4924) in patients with metastatic melanoma” (Investigational New Drugs, 2016)
Several values for one entry are separate records, joined by “and”; a condition that tells them apart may be missing. Equal values may be shown once. Entries after “also recorded” stand apart in the source; their conditions may differ. Read-outs that look alike come from different tables or passages of the source.

What was measured:
[1] = test system: patients with metastatic melanoma; test: Adverse events (NCI CTCAE v3.0) in the phase I study, safety population; assay type: in vivo
Protocol: (§1) Patients received pevonedistat as 1 h intravenous infusions either on Days 1, 4, 8, and 11 (schedule A) or on Days 1, 8, and 15 (schedule B, weekly dosing) of 21-day cycles. For schedule A, intermittent dosing on Days 1, 4, 8, and 11 was chosen to match the twice-weekly schedule of the proteasome inhibitor bortezomib. The starting dose of 50 mg/m^2 was selected based on the toxicities and the MTD observed in another phase I study that investigated pevonedistat administration on Days 1–5 of 21-day cycles in patients with advanced solid tumors. It was hypothesized that intermittent dosing – extending the dose over a 2-week period – would be better tolerated than the continuous dosing schedule, which was associated with severe hepatotoxicity. Schedule B, which was added subsequently through a protocol amendment, was based on the rationale that weekly bortezomib has similar efficacy and is more convenient than the twice-weekly schedule. […] Patients could receive pevonedistat until disease progression or unacceptable drug-related toxicity, up to a maximum of 12 months.
(§2) Adverse events (AEs) were graded using the National Cancer Institute’s Common Terminology Criteria for AEs version 3.0. Response was assessed using the modified RECIST guideline (v1.1). Computed tomography or magnetic resonance imaging scans were performed at screening, at the end of Cycle 2, and then every other cycle.

[2] = test system: pevonedistat–NEDD8 adduct, Cdt1 and Nrf-2; test: Immunohistochemistry of paired tumor biopsies; assay type: in vivo, human
Protocol: For patients in the MTD expansion cohort, paired tumor biopsies were obtained at screening and at 3–6 h post-dosing on Day 4 (schedule A) or Day 8 (schedule B). […] Immunohistochemical analyses were performed at Millennium Pharmaceuticals, Inc. as previously described.

[3] = Plasma pharmacokinetics (LC/MS/MS, noncompartmental analysis); settings: for Dose proportionality of plasma exposure: 50–278 mg/m^2, after Day 1 intravenous infusion; for Disposition profile following completion of the intravenous infusion: schedules A and B
Protocol: (§3) Blood samples (3 mL) for PK analysis were collected during Cycle 1. On schedule A, serial samples were collected within 1 h before dosing on Day 1, immediately after completion of infusion (immediately before switching off infusion pump), and at 1, 4, and 7 h after completion of infusion. Samples were also collected on Days 2 and 3; on Days 4 and 8 (immediately before dosing and immediately after completion of infusion); on Day 11 immediately before dosing, immediately after completion of infusion, and at 4 and 7 h after completion of infusion; and on Day 15. On schedule B, blood samples were collected within 1 h before dosing on Day 1, immediately after completion of infusion (immediately before switching off infusion pump), and at 1, 2, 4, and 7 h after completion of infusion. Samples were also collected on Days 2, 3, and 4; and on Days 8 and 15 (immediately before dosing and immediately after completion of infusion). Samples were analyzed at Tandem Labs (West Trenton, NJ) for pevonedistat plasma concentrations using Good Laboratory Practice-validated liquid chromatography/tandem mass spectrometry methods. The dynamic ranges were 1–500 ng/mL for the low-range assay and 75–7500 ng/mL for the high-range assay.
(§4) The PK-evaluable population included all patients who received all protocol-defined doses in Cycle 1, had sufficient plasma concentration–time data to reliably estimate PK parameters, and had not received any excluded concomitant medications per protocol. Individual pevonedistat plasma concentration–time data were analyzed by noncompartmental methods using WinNonlin software (Version 6.2, Pharsight Corporation, Cary, NC). Plasma concentrations below the lower limit of quantification were set to zero for analysis.

[4] = test system: patients with solid tumors; parameters: method as in PMID 26423795; settings: cited from earlier work
[5] = test system: patients with metastatic melanoma; test: Dose escalation: DLTs and MTD determination (Bayesian continual reassessment method); assay type: in vivo; settings: schedule A (Days 1, 4, 8, and 11 of 21-day cycles), 1 h intravenous infusion
Protocol: as §1
Dose escalation proceeded via a Bayesian continual reassessment method using 2-patient cohorts and 1.33-fold dose increments over the previous dose level. Dose escalation decisions were based on occurrence of DLTs in Cycle 1 and the predicted MTD from the continual reassessment model (Supplementary Fig. S1). […]

[6] = test system: NAE-regulated transcriptional targets (ATF3, GCLM, GSR, MAG1, NQ01, SLC7A11, SRXN1, and TXNRD1); test: RT-PCR of NAE-regulated transcripts in whole blood; assay type: in vivo, human
Protocol: Blood samples for PD analysis were collected during Cycle 1. […] On schedule B samples were collected: at screening; on Day 1 within 1 h before dosing and 1, 2, 4, and 8 h after completion of infusion; on Day 8 within 1 h before dosing; and on Day 15 within 1 h before dosing and 1, 2, and 4 h after completion of infusion. Gene expression of NAE-regulated transcriptional targets (ATF3, GCLM, GSR, MAG1, NQ01, SLC7A11, SRXN1, and TXNRD1) in whole blood was analyzed by reverse-transcription polymerase chain reaction (RT-PCR). Raw data were transformed prior to calculation of percent change and assumptions were made for missing data, as previously described. Summary statistics were generated for the percent change from baseline at each time point for each gene.

[7] = test system: treatment-naïve elderly patients with AML; parameters: method as in earlier work; settings: in combination with azacitidine, Days 1, 3, and 5 schedule; cited from earlier work
[8] = test system: NAE; parameters: method as in PMID 21779466, PMID 15688063, PMID 19360080, PMID 23416079, PMID 24853380; settings: NAE inhibition; cited from earlier work
[9] = clinical; settings: human, in vivo
Protocol: as §3, §4

[10] = test system: patients with relapsed/refractory AML or MDS; parameters: method as in PMID 25733005; settings: cited from earlier work; for MTD: single-agent
[11] = test system: patients with metastatic melanoma; test: Antitumor activity, response by modified RECIST v1.1; assay type: in vivo, human
Protocol: as §2

[12] = test system: patients with multiple myeloma or lymphoma; parameters: method as in PMID 26561559; settings: cited from earlier work
[13] = human, plasma, intravenous, 157 mg/m^2
[14] = nine melanoma patients in the first-in-human phase I study
[15] = Cycle 1, Day 1, 7 h post-dose, Schedule A MTD, 209 mg/m^2 (n=11)
[16] = Cycle 1, Day 1, 8 h post-dose, Schedule B, 157 mg/m^2 (n=8)
[17] = the patient with partial response, 209 mg/m^2 schedule A

Structure (SMILES): NS(=O)(=O)OC[C@@H]1C[C@@H](n2ccc3c(N[C@H]4CCc5ccccc54)ncnc32)C[C@@H]1O [pevonedistat, Pevonedistat]
- On-study death ([1]; Schedule A (n = 26)): 2 (8) n (%)
- On-study death ([1]; Schedule B (n = 11)): 1 (9) n (%)
- Severity of peripheral neuropathy ([1]; human, in vivo): mild (grade 1)
- Patients who experienced acute organ failure toxicities ([1]; in vivo): Two
- Tolerability at the MTD ([1]; schedule A, 209 mg/m^2): generally well tolerated
- Drug-related death ([1]; schedule A, 209 mg/m^2, one patient after one dose, Day 9 of Cycle 1): grade 5 acute renal failure; also recorded: died due to drug-related acute renal failure
- pevonedistat–NEDD8 adduct in post-dose tumor biopsy samples ([2]; 3–6 h after Cycle 1, Day 4 dose, 3 patients, Schedule A MTD expansion cohort): positive
- Immunohistochemical expression of Cdt1 and Nrf-2 in tumor ([2]; one patient with adequate biopsy tissue, schedule A MTD): increased post-treatment
- Dose proportionality of plasma exposure [3]: increased approximately proportionally with dose
- Dose proportionality of plasma exposure ([3]; listed as Pevonedistat): approximately dose-proportional
- AUC(0-inf) [3, 13]: 8930 ng·h/mL
- AUC(0-t) [3, 13]: 7250 ng·h/mL
- Cmax [3, 13]: 2450 ng/mL
- Tmax [3, 13]: 1 h
- clearance [3, 13]: 647 mL/min
- half-life [3, 13]: 10.1 h
- half-life ([3]; human, plasma, iv): ~10 h
- Disposition profile following completion of the intravenous infusion [3]: biphasic disposition phase
- Disposition profile following completion of the intravenous infusion ([3]; listed as Pevonedistat): biphasic disposition profile
- MTD ([4]; Days 1–5 and Days 1, 3, and 5 schedules): 50–67 mg/m^2
- DLTs [4]: ALT elevation, AST elevation, and hyperbilirubinemia
- Duration of stable disease in another patient [4, 14]: 6 months
- Patients achieving a partial response [4, 14]: one
- Maximum tolerated dose (MTD) [5]: 209 mg/m^2
- ATF3 transcript, median % change from baseline (range) [6, 15]: 88.6 (–38.6 to 385.0) %
- GCLM transcript, median % change from baseline (range) [6, 15]: 105.3 (–33.0 to 234.2) %
- GSR transcript, median % change from baseline (range) [6, 15]: 196.6 (–54.2 to 447.6) %
- MAG1 transcript, median % change from baseline (range) [6, 15]: 99.1 (–22.4 to 236.4) %
- NQ01 transcript, median % change from baseline (range) [6, 15]: 681.2 (–49.7 to 2740.6) %
- SLC7A11 transcript, median % change from baseline (range) [6, 15]: 837.0 (–65.3 to 3873.9) %
- SRXN1 transcript, median % change from baseline (range) [6, 15]: 142.0 (–50.5 to 340.0) %
- TXNRD1 transcript, median % change from baseline (range) [6, 15]: 220.7 (–41.7 to 347.7) %
- ATF3 transcript, median % change from baseline (range) [6, 16]: 260 (30.8 to 541.4) %
- GCLM transcript, median % change from baseline (range) [6, 16]: 65.4 (20.0–108.0) %
- GSR transcript, median % change from baseline (range) [6, 16]: 176.2 (93.2–216.6) %
- MAG1 transcript, median % change from baseline (range) [6, 16]: 81.7 ( 39.0–158.2) %
- NQ01 transcript, median % change from baseline (range) [6, 16]: 833.8 (330.6–2202.3) %
- SLC7A11 transcript, median % change from baseline (range) [6, 16]: 727.4 (184.7 to 1660.0) %
- SRXN1 transcript, median % change from baseline (range) [6, 16]: 81.5 (43.3 to 185.3) %
- TXNRD1 transcript, median % change from baseline (range) [6, 16]: 156.9 (87.8 to 234.9) %
- Change of all eight NAE-regulated gene transcripts post-treatment ([6]; MTD on schedule A and schedule B): increases in NAE-regulated transcripts post-treatment; also recorded: significantly increased
- Doses at which induction of all NAE-regulated transcriptional targets was observed ([6]; data not shown): ≥ 50 mg/m^2
- MTD [7]: 20 mg/m^2
- Fraction of the proteins regulated by the UPS whose proteasomal degradation is prevented [8]: ~ 20%
- Tmax [9]: 1 h
- clearance [9]: 635 mL/min
- half-life [9]: 10.4 h
- DLTs [10]: multi-organ failure, reversible ALT elevation, AST/ALT elevation, cardiac failure, and acute renal failure
- MTD ([10]; Days 1, 3, and 5 of 21-day cycles): 50/59
- MTD ([10]; Days 1, 4, 8, and 11 schedule): 83 mg/m^2
- Best response: progressive disease ([11]; 31 response-evaluable patients): 15 (48 %) patients
- Best response: stable disease ([11]; 31 response-evaluable patients, schedule A and B): 15 patients and 15 (48 %) patients
- Patients with stable disease lasting 6.5 months or longer ([11]; among the 15 patients who achieved stable disease): 4 patients
- Duration of response [11, 17]: 1.55 months
- Overall duration of stable disease or better [11, 17]: 4.4 months
- MTD ([12]; Day 1, 2, 8, and 9 schedule): 110 mg/m^2
- MTD ([12]; Days 1, 4, 8, and 11 of 21-day cycles): 196 mg/m^2
- DLTs [12]: febrile neutropenia, AST elevation, muscle cramps, and thrombocytopenia
